In US11357748B2, “Methods for treating mendelian disorders of the epigenetic machinery” (THE JOHNS HOPKINS UNIVERSITY, priority 2014, dated 2022):
Entries after “also recorded” stand apart in the source; their conditions may differ.

Tests used:
Kmt2d+/βGeo mice = assay: Morris water maze (hippocampal memory) in the Kmt2d+/βGeo mouse model of Kabuki syndrome; type: in vivo; conditions: 10 mg/kg/day
Excerpt: Kmt2d^+/βGeo mice, also named Mll2Gt^(RRt024) Byg, were acquired from Bay Genomics (University of California). All experimental mice were on a mixed C57BL/6J and 129/SvEv background. Expected Mendelian ratios were observed when heterozygous animals were bred to wild-type. In heterozygous crosses, however, there was uniform embryonic lethality of homozygotes by ED 12, the earliest developmental stage assayed. For treatment with AR-42, mice were orally gavaged daily with drug (Selleck Chemicals, Houston, Tex.) solubilized in vehicle (0.5% methylcellulose, 0.1% Tween-80, water) or with vehicle alone. Drug delivery information was kindly provided by Drs. Chen and Kulp from Ohio State University (Huang et al. (2011) Mol. Pharmacol. 79:197-20619). Drug was administered for 14 days and mice were sacrificed on day 15. Morris water maze testing was initiated at day 7 and a dose of 10 mg/kg/day was used for these studies. For quantification of DCX positive cells, doses of 0, 5, 10 and 25 mg/kg/day were used. Genotyping was performed using primers B-GeoF-([…]; SEQ ID NO: 1) and B-GeoR-([…]; SEQ ID NO: 2) that are specific for the targeted allele and TcrdF-([…]; SEQ ID NO: 3) and TcrdR-([…]; SEQ ID NO: 4) that control for sufficient DNA concentration. Real-time PCR using the same primers allows discrimination between the heterozygous and homozygous state for the targeted allele. Maxillary protrusion was evaluated by ten investigators blinded to genotype and they were asked to rate maxillary protrusion on radiographs as either large (2) or small (1). […] All experiments were performed using mouse protocols approved by the Animal Care and Use Committee of Johns Hopkins University School of Medicine. The mouse protocols used for this study are in accordance with the guidelines used by the NIH for mouse care and handling.
Mice were placed in a 1.1 meter diameter tank filled with room temperature water dyed with non-toxic white paint. For analysis purposes, the tank was divided into four quadrants, with one quadrant containing a small platform submerged 1.5 cm beneath the water. On each day of training, mice were placed in the tank in a random quadrant facing away from the center and were allowed to swim until they found the platform and were left there for 30 seconds. […] Each mouse was given 4 trials per day (for 5 days) with no inter-trial interval and subsequently returned to its home cage. Latency to reach the platform was measured during each trial. The day after the final day of training, the platform was removed for a probe trial where mice were placed in the tank for 90 s. Average number of crossings of the platform's previous location was recorded. Visible/flagged platform training was also performed for 3 days either before the hidden platform or after the probe trial, where a visible flag was placed on the submerged platform, and the time for each mouse to reach the platform was measured for each 60 second trial, four of which were run in the same way as the hidden platform training. For all training and probe testing, data was recorded both manually and electronically with ANY-maze software (San Diego Instruments, San Diego, Calif.) when applicable. All data were collected and analyzed by an individual blinded to genotype and treatment group. Differences in the number of platform crossings during the probe trial were compared between groups with a Student's t-test with significance value set at P<0.05.

[1] = tested on: H3K4 trimethylation and histone acetylation; conditions: Huang et al. (2011); cited from earlier work
Klf10 expression = assay: Real-time PCR of Kmt2d target gene Klf10 in spleen cells; type: in vivo, mouse; conditions: AR-42 treatment (10 mg/kg/day); FIG. 26
Protocol: Real-time PCR was performed using Kmt2d-specific probes for exons 20 and 52 (Mm_02600438 and Mm_01717664, respectively) from TaqMan® Gene Expression Assays (Life Technologies, Carlsbad, Calif.). For a comparison of transfection efficiencies for indicator constructs in transient transfection studies, real-time PCR was performed using SYBR Green Real-Time PCR Master Mix (Life Technologies, Carlsbad, Calif.) and primers IND-F-([…]; SEQ ID NO: 5) and IND-R-([…]; SEQ ID NO: 6) that are specific for the H3K4 methylation indicator. For expression analysis for KMT2D target gene KLF10, real-time PCR was performed using Klfl0-specific expression assay (Mm00449812_m1) from TaqMan® Gene Expression Assays (Life Technologies, Carlsbad, Calif.).

With `CC(C)[C@H](C(=O)Nc1ccc(C(=O)NO)cc1)c1ccccc1` [AR-42, (S)—N-hydroxy-4-(3-methyl-2-phenylbutanamido)benzamide] the “functional studies outcome by dose” value (Kmt2d+/βGeo mice) was “most improvement in functional studies”, the “escape latency during training, Kmt2d+/βGeo vs Kmt2d+/+ both on drug” value (Kmt2d+/βGeo mice; FIG. 12B) was “No significant difference is observed” and the “escape latency during training, Kmt2d+/βGeo animals with vs without drug” value (Kmt2d+/βGeo mice; FIG. 12D) was “No significant difference is observed”. The “frequency of platform crossing during probe trial, Kmt2d+/βGeo mice” value (Kmt2d+/βGeo mice; FIG. 25F) was “normalized”, the “escape latency during training, Kmt2d+/+ animals with vs without drug” value (Kmt2d+/βGeo mice; P<0.01, FIG. 12C) was “significant difference” and the “platform crossing during probe trial, both Kmt2d+/+ and Kmt2d+/βGeo mice” value (Kmt2d+/βGeo mice; greater response in Kmt2d+/βGeo, FIG. 25F) was “improved performance”. The “relative effect on H3K4me3 among HDACi” value [1] was “strongest effect on H3K4me3” and the “Klf10 expression in spleen cells of Kmt2d+/βGeo mice” value (Klf10 expression) was “normalization of expression of Klf10; also recorded: normalized”.
